Experimental data taken from patent US20200399238A1, “THERAPEUTIC AURONES” (MIDDLE TENNESSEE STATE UNIVERSITY, priority 2016, published 2020).
Read-outs that look alike come from different tables or passages of the source.

What was measured:
[1] = tested on: Trypanosoma brucei brucei 427 cells; test: T. brucei culture and assay (PrestoBlue); assay type: cell-based
[2] = tested on: Leishmania amazonensis promastigotes expressing beta-lactamase; test: microbe, parasite or virus in culture; assay type: cell-based; settings: for IC50: Leishmania amazonensis
[3] = tested on: rat skeletal muscle cell line, L6; test: cells; assay type: cell-based
[4] = tested on: Trypanosoma cruzi Tulahuen cells expressing beta-galactosidase; test: T. cruzi intracellular assay (beta-galactosidase, L6 host cells); settings: for Selectivity L6/Tc-I: Table 3B; for Selectivity L6/Tc-I / Selectivity L6/TC-I: estimated from highest L6 dose tested where no L6 IC50; for IC50: Trypanosoma cruzi, TULAHUEN; for Selectivity L6/TC-I: Table 3A
[5] = Table 2, mean of 2(+) independent trials, read-out: IC50 T. brucei
[6] = Trypanosoma brucei, Table 1, mean of 2(+) independent trials, read-out: IC50 T. brucei
[7] = Table 2, L6 IC50 / L. amazonensis IC50
[8] = Rattus norvegicus, Table 1, read-out: IC50 Toxicity (L6)
[9] = Rattus norvegicus, Table 3B, weighted means of two or more independent trials, read-out: IC50 L6
[10] = Table 1, intracellular T. cruzi IC50
[11] = Table 2, L6 IC50 / T. cruzi IC50 (intracellular assay)
[12] = read-out: IC50 T. cruzi, Table 1, intracellular assay, mean of 2(+) trials (^c one trial)
[13] = read-out: IC50 T. cruzi, Table 2, intracellular assay, mean of 2(+) independent trials
[14] = read-out: IC50 TC-I, Table 3B, weighted means of two or more independent trials
[15] = Table 2, L6 IC50 / T. brucei IC50
[16] = Table 2, L6 mammalian cells, read-out: IC50 Toxicity (L6)
[17] = Table 3A, estimated from highest L6 dose tested where no L6 IC50
[18] = Rattus norvegicus, Table 3A, weighted means of two or more independent trials, read-out: IC50 L6
[19] = read-out: IC50 TC-I, Table 3A, weighted means of two or more independent trials
[20] = read-out: IC50 L. amaz. (footnote c: value obtained from one trial)

| Structure (SMILES) | IC50 [1, 6] | IC50 ([2]; read-out: IC50 L. amaz.) | Selectivity L6/La ([2]; Table 1) | Selectivity L6/La [2, 7] | IC50 [3, 8] | melting point | Selectivity L6/Tc [4, 10] | Selectivity L6/Tc [4, 11] | IC50 [4, 12] | IC50 [4, 13] | other results |
| --- | --- | --- | --- | --- | --- | --- | --- | --- | --- | --- | --- |
| Cc1[nH]cnc1/C=C1\Oc2ccccc2C1=O [Aurone 9059, (Z)-2-((5-methyl-H-imidazol-4-yl)methylene)benzofuran-3(2H)-one] | > 50 µM | 3.96 µM | 80.99 | 80.99 | 321 µM | 180 to 183 °C | 61.09 | 61.09 | 5.25 µM | 5.25 µM | IC50 [1, 5]: > 50 µM; IC50 ([1]; Trypanosoma brucei, read-out: T. brucei IC50 dose): > 50 µM; IC50 [3, 9]: 321 µM; selectivity for T. cruzi (L6/Tc) [4]: 61.09; Selectivity L6/Tc-I [4]: 61.09; IC50 [4, 14]: 5.25 µM; IC50 ([4]; read-out: T. cruzi IC50 dose): 5.25 µM |
| O=C1/C(=C/c2ccoc2)Oc2ccccc21 [Aurone 3005, (Z)-2-(furan-3-ylmethylene)benzofuran-3(2H)-one] | 41.9 µM | 42.7 µM | >2.34 | >2.34 | > 100 µM | 111 to 112 °C | >13.39 | >13.39 | 7.47 µM | 7.47 µM | Selectivity L6/Tb ([1]; Table 1): >2.39; Selectivity L6/Tb [1, 15]: >2.39; Selectivity L6/Tb ([1]; Table 3B, estimated from highest L6 dose tested where no L6 IC50): >2.39; IC50 [3, 9]: > 100 µM; IC50 [3, 16]: > 100 µM; Selectivity L6/Tc-I [4]: >13.39; IC50 [4, 14]: 7.47 µM |
| O=C1/C(=C/c2cccs2)Oc2c1ccc(O)c2O [Aurone 1001, (Z)-6,7-dihydroxy-2-(thiophen-2-ylmethylene)benzofuran-3(2H)-one] | 25.3 µM | 22.9 µM |  |  | 50.6 µM | 168 to 170 °C |  |  | > 50 µM |  |  |
| O=C1/C(=C/c2cccc(Cl)c2)Oc2ccccc21 [Aurone 9026, (Z)-2-(3-chlorobenzylidene)benzofuran-3(2H)-one] | 27.4 µM | 12.6 µM | 6.15 |  | 77.5 µM | 86 to 89 °C | 7.07 |  | 11 µM |  | Selectivity L6/Tb ([1]; Table 1): 2.83; Selectivity L6/Tb [1, 17]: 2.83; IC50 [3, 18]: 77.5 µM; Selectivity L6/TC-I [4]: 7.07; IC50 [4, 19]: 11 µM |
| COc1cccc(/C=C2\Oc3ccc(C)cc3C2=O)c1O [Aurone 4003, (Z)-2-(2-hydroxy-3-methoxybenzylidene)-5-methylbenzofuran-3(2H)-one] | 27.7 µM | 13.4 µM | >7.45 |  | > 100 µM | 134 to 137 °C |  |  | > 50 µM |  | Selectivity L6/Tb ([1]; Table 1): >3.61 |
| O=C1/C(=C/c2cccc(C(F)(F)F)c2)Oc2ccccc21 [Aurone 9085, (Z)-2-(3-(trifluoromethyl)benzylidene)benzofuran-3(2H)-one] | > 50 µM | 4.43 µM |  |  | 73.4 µM | 128 to 133 °C |  |  | 11.1 µM | 11.1 µM |  |
| O=C1/C(=C/c2ccc(O)cc2)Oc2ccccc21 [Aurone 9068, (Z)-2-(4-hydroxybenzylidene)benzofuran-3(2H)-one] | > 50 µM | 1.57 µM |  |  | > 200 µM | 258 to 260 °C |  |  | > 50 µM | > 50 µM |  |
| O=C1/C(=C/c2ccccc2Cl)Oc2ccccc21 [Aurone 9007, (Z)-2-(2-chlorobenzylidene)benzofuran-3(2H)-one] | 11.3 µM | 17.5 µM | 13.55 | 13.55 | 238 µM | 118 to 126 °C | 18.72 | 18.72 | 12.7 µM | 12.7 µM | Selectivity L6/Tb ([1]; Table 1): 21.02; Selectivity L6/Tb [1, 15]: 21.02; Selectivity L6/Tb [1, 17]: 21.02; IC50 [2, 20]: 17.5 µM; IC50 [3, 18]: 238 µM; Selectivity L6/TC-I [4]: 18.72; IC50 [4, 19]: 12.7 µM |
| O=C1/C(=C/c2ccccc2F)Oc2ccccc21 [Aurone 9004, (Z)-2-(2-fluorobenzylidene)benzofuran-3(2H)-one] | > 50 µM | 10.5 µM | 16.83 | 16.83 | 176 µM | 76 to 81 °C | 8.00 | 8.00 | 22 µM | 22 µM | IC50 [1, 5]: > 50 µM; IC50 [2, 20]: 10.5 µM; IC50 [3, 18]: 176 µM; Selectivity L6/TC-I [4]: 8.00; IC50 [4, 19]: 22 µM |
| O=C1/C(=C/c2cc(Br)cs2)Oc2ccccc21 [Aurone 9061, (Z)-2-((4-bromothiophen-2-yl)methylene)benzofuran-3(2H)-one] | > 50 µM | 1.7 µM |  |  | > 100 µM | 125 to 129 °C |  |  | > 50 µM | > 50 µM | IC50 [3, 9]: > 100 µM; IC50 [4, 14]: > 50 µM |
| CCc1ccc(/C=C2\Oc3ccccc3C2=O)cc1 [Aurone 8001, (Z)-2-(4-ethylbenzylidene)benzofuran-3(2H)-one] | 46.5 µM | 6.42 µM |  |  | > 100 µM | 71 to 74 °C |  |  | 11.4 µM | 11.4 µM | IC50 [2, 20]: 6.42 µM |
| O=C1/C(=C/c2cccc(I)c2)Oc2ccccc21 [Aurone 9028, (Z)-2-(3-iodobenzylidene)benzofuran-3(2H)-one] | > 50 µM | 2.61 µM | >38.31 | >38.31 | > 100 µM | 99 to 105 °C | >13.26 | >13.26 | 7.54 µM | 7.54 µM | IC50 [1, 5]: > 50 µM; IC50 [3, 18]: > 100 µM; IC50 [3, 16]: > 100 µM; Selectivity L6/TC-I [4]: >13.26; IC50 [4, 19]: 7.54 µM |
| COc1ccc2c(c1)O/C(=C\c1ccc(Br)cc1)C2=O [Aurone 5005, (Z)-2-(4-bromobenzylidene)-6-methoxybenzofuran-3(2H)-one] | 47.2 µM | 14.3 µM |  |  | 181 µM | 153 °C |  |  | > 50 µM | > 50 µM |  |
| COc1ccc2c(c1)O/C(=C\c1ccc(C)cc1)C2=O [Aurone 5002, (Z)-6-methoxy-2-(4-methylbenzylidene)benzofuran-3(2H)-one] | 40.7 µM | 10.5 µM |  |  | 183 µM | 115 to 122 °C |  |  | > 50 µM | > 50 µM |  |
| O=C1/C(=C/c2ccc(CO)o2)Oc2ccccc21 [Aurone 9067, (Z)-2-((5-(hydroxymethyl)furan-2-yl)methylene)benzofuran-3(2H)-one] | 34.9 µM | < 1 µM |  |  | 31.1 µM | 61 to 63 °C |  |  | 12.5 µM | 12.5 µM | IC50 [3, 9]: 31.1 µM; IC50 ([3]; Rattus norvegicus, read-out: toxicity in L6): 31.1 µM; IC50 [4, 14]: 12.5 µM; IC50 ([4]; read-out: T. cruzi IC50 dose): 12.5 µM |
